Laboratory results reported in the supplement of paper PMC13380429.

What was measured:
Conditions in all cases: 72 h
[1] = tested on: Caco-2; test: cell viability relative to DMSO; higher = less toxic
[2] = tested on: Calu-3; test: as above
[3] = tested on: HepG2; test: as above
[4] = tested on: U2OS; test: as above
[5] = tested on: Vero E6; test: as above
[6] = tested on: Caco-2; test: relative viability EC50 (midpoint between 100% and the lowest measured viability); higher = less toxic
[7] = tested on: Calu-3; test: as above
[8] = tested on: HepG2; test: as above
[9] = tested on: U2OS; test: as above
[10] = tested on: Vero E6; test: as above
[11] = tested on: Caco-2; test: drug sensitivity score (DSS) for viability; higher = more toxic; extreme values may be limits of the assay
[12] = tested on: Calu-3; test: as above
[13] = tested on: HepG2; test: as above
[14] = tested on: U2OS; test: as above
[15] = tested on: Vero E6; test: as above

Row | SMILES | cell viability ([1]; 1 nM) [%] | cell viability ([1]; 10 nM) [%] | cell viability ([1]; 100 nM) [%] | cell viability ([1]; 1000 nM) [%] | cell viability ([1]; 10000 nM) [%] | cell viability ([2]; 1 nM) [%] | cell viability ([2]; 10 nM) [%] | cell viability ([2]; 100 nM) [%] | cell viability ([2]; 1000 nM) [%] | cell viability ([2]; 10000 nM) [%] | cell viability ([3]; 1 nM) [%] | cell viability ([3]; 10 nM) [%] | cell viability ([3]; 100 nM) [%] | cell viability ([3]; 1000 nM) [%] | cell viability ([3]; 10000 nM) [%] | cell viability ([4]; 1 nM) [%] | cell viability ([4]; 10 nM) [%] | cell viability ([4]; 100 nM) [%] | cell viability ([4]; 1000 nM) [%] | cell viability ([4]; 10000 nM) [%] | cell viability ([5]; 1 nM) [%] | cell viability ([5]; 10 nM) [%] | cell viability ([5]; 100 nM) [%] | cell viability ([5]; 1000 nM) [%] | cell viability ([5]; 10000 nM) [%] | relative viability EC50 [6] [µM] | relative viability EC50 [7] [µM] | relative viability EC50 [8] [µM] | relative viability EC50 [9] [µM] | relative viability EC50 [10] [µM] | drug sensitivity score [11] | drug sensitivity score [12] | drug sensitivity score [13] | drug sensitivity score [14] | drug sensitivity score [15]
1 | OC(c1ccccc1)C1CCN(CCc2ccccc2)CC1 (centres undefined) | 98.4 | 95.2 | 102 | 101 | 95.4 | 97.3 | 85 | 111 | 108 | 104 | 88.4 | 110 | 96.7 | 105 | 114 | 101 | 96.7 | 102 | 98 | 101 | 96.3 | 94.1 | 93.5 | 93.8 | 106 | > 10 | > 10 | > 10 | > 10 | > 10 | 0 | 0 | 0 | 0 | 0
2 | COc1cc(SC)ccc1C(=O)N1CCC(Cc2ccccc2)CC1 [JX-401] | 95.5 | 95.9 | 90.9 | 99 | 94.5 | 99.4 | 114 | 97.5 | 103 | 97.3 | 104 | 110 | 99.9 | 97.7 | 106 |  |  |  |  |  | 101 | 98.6 | 99.8 | 97.6 | 94.8 | > 10 | > 10 | > 10 |  | > 10 | 0 | 0 | 0 |  | 0
3 | O=C1c2ccccc2C(=O)c2ccccc21 [anthraquinone] |  |  |  |  |  | 94.9 | 97.4 | 95.8 | 88 | 98.2 | 95.2 | 106 | 96.2 | 94.2 | 92.6 | 105 | 99.7 | 103 | 99.2 | 105 | 105 | 106 | 99.8 | 104 | 101 |  | > 10 | > 10 | > 10 | > 10 |  | 0 | 0 | 0 | 0
4 | O=c1cc(-c2ccc(O)cc2)oc2cc(O)cc(O)c12 [apigenin] | 93.9 | 94.2 | 105 | 94.8 | 90.4 | 104 | 103 | 101 | 99.3 | 94.7 | 92.8 | 105 | 97.7 | 102 | 94 |  |  |  |  |  | 101 | 101 | 101 | 95.2 | 92 | > 10 | > 10 | > 10 |  | > 10 | 0 | 0 | 0 |  | 0
5 | CCOc1nc2cccc(C(=O)OCc3oc(=O)oc3C)c2n1Cc1ccc(-c2ccccc2-c2noc(=O)[nH]2)cc1 [azilsartan-medoxomil] | 107 | 86.4 | 83.3 | 107 | 85.1 | 104 | 102 | 96.3 | 101 | 93.1 |  |  |  |  |  | 98.7 | 101 | 94.7 | 97.3 | 92.8 | 113 | 107 | 107 | 99.4 | 101 | > 10 | > 10 |  | > 10 | > 10 | 0.1 | 0 |  | 0 | 0
6 | COc1ccccc1Oc1c(NS(=O)(=O)c2ccc(C(C)(C)C)cc2)nc(-c2ncccn2)nc1OCCO [bosentan] | 106 | 98.4 | 103 | 96.6 | 81.1 | 102 | 94.2 | 99.1 | 114 | 102 |  |  |  |  |  | 98 | 102 | 98 | 99.9 | 91 | 95.1 | 100 | 94.3 | 93.9 | 85.3 | > 10 | > 10 |  | > 10 | > 10 | 0.9 | 0 |  | 0 | 0.2
7 | N#Cc1c(N)nc(SCc2csc(-c3ccc(Cl)cc3)n2)c(C#N)c1-c1ccc(OCCO)cc1 [capadenoson] | 102 | 94.6 | 98.8 | 104 | 74.8 | 98 | 102 | 104 | 104 | 95.6 | 89 | 108 | 95.3 | 105 | 107 | 99.2 | 95.2 | 101 | 100 | 79.3 | 93 | 98.5 | 95.6 | 102 | 102 |  | > 10 | > 10 | > 10 | > 10 | 0.8 | 0 | 0 | 0.6 | 0
